# Test results from patent US20200323962A1, “LIPOPHILIC PEPTIDE PRODRUGS” (YISSUM RESEARCH DEVELOPMENT COMPANY OF THE HEBREW …, priority 2017, published 2020).
# Like-named read-outs stand apart in the source and are kept apart here. Marks after values point to notes of the source that are not given here. *1 amine or outer side, *2 acyl side, *3 side chain or, on linkers, in order; H or OH if unused. Where a SMILES comes first, the peptide text is derived from it. Bridges are numbered along the chain shown (N, C = ends). Where no end group is shown, it is not given here. [ ]: non-standard residue; d: D form. Arg(ω,ω'-(C6H13OCO)2) = CCCCCCOC(=O)N=C(NCCC[C@H](N)C(=O)O)NC(=O)OCCCCCC; Phe(Nα-(CH2)3CO) = O=C([C@H](Cc1ccccc1)N(CCCC(=O)[*:3])[*:1])[*:2]; N(2-aminoethyl)Phe = O=C([C@H](Cc1ccccc1)N(CCN[*:3])[*:1])[*:2]
# Columns and labels:
# [1] = for Mass retention / Permeability, Mean / Permeability, replicate 1 / Permeability, replicate 2 / Permeability, replicate 3: PAMPA, pH 7.4
# Source text: The Parallel Artificial Membrane Permeability Assay (PAMPA) is used as an in vitro model of passive, transcellular permeation. […] This assay also allows evaluation of permeability over a large pH range, which is valuable for a preliminary understanding of how orally delivered compounds might be absorbed across the entire gastrointestinal tract. […] Depending upon the types of lipids used and other experimental conditions, PAMPA may be designed to model absorption in gastrointestinal tract (PAMPA-GIT), blood-brain barrier penetration (PAMPA-BBB) or skin penetration (Skin PAMPA). All steps of the PAMPA were carried out according to pION Inc. PAMPA Explorer™ Manual. The main principle of the assay is the incubation of compound in donor chamber (a well in Donor Plate) with aqueous buffer, which is separated from acceptor chamber (a well in Acceptor Plate) with another buffer by a phospholipid or hydrocarbon membrane fixed on a filter support. After the test, concentrations in the corresponding donor and acceptor wells are measured and permeability is calculated. GIT model was simulated using GIT-0 phospholipid mix. […] All compounds were tested in triplicates. Prisma HT buffer (pH 7.4) containing 50 μM test compounds and 0.5% DMSO were added into the Donor Plate wells. Acceptor Sink buffer was added into each well of the acceptor plate. Incubation was done at room temperature for 4 hours without stirring. […] Compounds with low UV-Vis signal were detected by LC-MS/MS method. Then the apparent permeability coefficient was calculated.
# Caco-2 cells = assay: Caco-2 permeability study (Examples 1-4); conditions: for Caco-2 permeability: qualitative
# Procedure: (§1) The culture growth medium consisted of DMEM supplemented with 10% heat-inactivated FBS, 1% MEM-NEAA, 2 mM 1-glutamine, 1 mM sodium pyruvate, 50,000 units Penicillin G Sodium and 50 mg Streptomycin Sulfate (Biological Industries). The medium was replaced every other day.
# (§2) Cells (passage 55-60) were seeded at density of 25×10^5 cells/cm^2 on untreated culture inserts of polycarbonate membrane with 0.4 μm pores and surface area of 1.1 cm^2. Culture inserts containing Caco-2 monolayer were placed in 12 mm transwell plates (Corning). Culture medium was replaced every other day. Transepithelial Electrical Resistance (TEER) values were measured by Millicell ERS-2 System (Millipore) a week after seeding up to experiment day (21-23 days) to ensure proliferation and differentiation of the cells. When the cells were fully differentiated and TEER values became stable (200-500 Ω·cm^2). The TEER values were compared to control inserts containing only the medium.
# (§3) The experiment was initiated by replacing the medium from both sides by apical (600 μl) and basolateral (1500 μl) buffers, both warmed to 37° C. The Cells were incubated with the buffers solutions for 30 min at 37° C. on a shaker (100 cycles/min). […] 50 μl samples were taken from the apical side immediately at the beginning of the experiment, resulting in 550 μl apical volume during the experiment.
# (§4) Permeability Coefficient (Papp) for each compound was calculated from the linear plot of drug accumulated versus time, using the following equation:
# (§5) Where dq/dt is steady state appearance rate of the compound on the receiver side, C0 is the initial concentration of the drug on the donor side, and A is the exposed tissue surface area (1.1 cm^2).
# (§6) Transport studies were performed through the Caco-2 monolayer mounted in an Ussing-type chamber set-up with continuous trans-epithelial electrical resistance (TEER) measurements to assure TEER between 800 and 1200 Ω*cm^2. HBSS supplemented with 10 mM IVIES and adjusted to pH 6.5 were used as transport medium in the donor compartment and pH 7.4 in the acceptor compartment. The donor solution contained the test compound.
# (§7) Permeability mechanism of compounds is studied by evaluating the Papp of a compound from the apical to the basolateral (A-to-B) membrane and its Papp from the basolateral to the apical membrane (B-to-A). The A-to-B assay simulates passive and transporter-mediated permeability. The B-to-A assay is essential complementary experiment indicative of the activity of P-gp. The ratio of the A-to-B and B-to A Papps (efflux ratio) is calculated to determine the permeability mechanism.
# human αvβ5-integrin = biological target: T1, human αvβ5-integrin (Homo sapiens, UniProt P06756+P18084); assay: Integrin binding assay (solid-phase), αvβ5
# T1 construct: purchased Millipore
# Procedure: (1) 5.0 μg/mL; human vitronectin, Millipore.
# (2) 3.0 μg/mL, human αvβ5-integrin, Millipore.
# human αvβ6-Integrin = biological target: T2, human αvβ6-Integrin (Homo sapiens, UniProt P06756+P18564, DEL708-788); assay: Integrin binding assay (solid-phase), αvβ6
# T2 construct: purchased R&D
# Procedure: (1) 0.4 μg/mL; LAP (TGF-3), R&D.
# (2) 0.5 μg/mL, human αvβ6-Integrin, R&D.
# human α5β1-integrin = human α5β1-integrin (Homo sapiens, UniProt P05556+P08648, DEL729-798); assay: biochemical
# [2] = for Papp A→B: Caco-2, Papp (AB); for Papp B→A: Caco-2, Papp (BA)
# in vitro [3] = conditions: human; for efflux ratio at 90 min, 10 µM: Caco-2, pH 7.4, Net efflux (quotient of Papp (BA) to Papp (AB)); for Papp A→B at 90 min, 10 μM: Caco-2, pH 7.4, Papp (AB); for Papp B→A at 90 min, 10 μM: Caco-2, pH 7.4, Papp (BA)
# [4] = pH 7.4, LogD
# Procedure: Log D. Determination of distribution coefficients were performed as follows:
# Incubations were carried out in Eppendorf-type polypropylene microtubes in triplicates. […] Phase separation was assured by centrifugation for 2 min at 6000 rpm. The octanol phase was diluted 100-fold with 40% acetonitrile, and aqueous phase was analyzed without dilution. The samples (both phases) were analyzed using HPLC system coupled with tandem mass spectrometer.
# in vitro [5] = conditions: human, Caco-2, Papp AB
# Procedure: as §1, §2, §3, §4, §5, §6, §7
# somatostatin receptors = conditions: SSTR subtypes; cited from earlier work
# [6] = test system: amylase and lipase release from the pancreas; conditions: bombesin- and caerulein-induced; cited from earlier work
# [7] = Caco-2 permeability study (Examples 1-4)
# Procedure: as §1, §2, §3, §4, §5, §6, §7
# [8] = pH 7.4 (mean in parentheses below reported bound)
# T2 sequence (P06756 31-992 limits assumed, stated change not applied): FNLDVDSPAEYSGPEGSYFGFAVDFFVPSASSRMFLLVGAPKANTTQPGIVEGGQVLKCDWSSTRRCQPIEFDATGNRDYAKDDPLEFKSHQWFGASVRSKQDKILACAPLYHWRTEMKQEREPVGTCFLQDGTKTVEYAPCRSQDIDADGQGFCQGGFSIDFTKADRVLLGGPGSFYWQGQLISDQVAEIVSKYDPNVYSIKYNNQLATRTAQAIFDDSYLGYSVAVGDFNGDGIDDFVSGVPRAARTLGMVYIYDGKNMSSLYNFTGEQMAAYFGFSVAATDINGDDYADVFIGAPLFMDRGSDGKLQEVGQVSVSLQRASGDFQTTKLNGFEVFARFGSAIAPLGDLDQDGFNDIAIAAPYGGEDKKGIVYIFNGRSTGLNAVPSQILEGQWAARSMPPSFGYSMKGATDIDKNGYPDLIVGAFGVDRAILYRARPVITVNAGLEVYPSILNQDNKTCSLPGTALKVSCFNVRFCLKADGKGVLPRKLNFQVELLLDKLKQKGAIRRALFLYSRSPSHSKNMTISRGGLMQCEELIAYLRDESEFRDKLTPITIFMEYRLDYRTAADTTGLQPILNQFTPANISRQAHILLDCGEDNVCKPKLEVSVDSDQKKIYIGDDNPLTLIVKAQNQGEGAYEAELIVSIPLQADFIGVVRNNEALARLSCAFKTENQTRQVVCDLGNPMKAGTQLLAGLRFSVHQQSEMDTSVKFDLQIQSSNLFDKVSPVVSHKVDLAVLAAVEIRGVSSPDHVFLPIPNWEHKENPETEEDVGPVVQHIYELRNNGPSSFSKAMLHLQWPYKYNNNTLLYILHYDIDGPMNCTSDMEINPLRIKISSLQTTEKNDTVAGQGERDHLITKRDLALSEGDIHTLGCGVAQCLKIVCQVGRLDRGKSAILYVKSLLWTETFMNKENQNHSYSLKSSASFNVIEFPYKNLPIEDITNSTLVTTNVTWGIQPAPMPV
# T2 sequence (P18564 22-707 limits assumed, stated change not applied): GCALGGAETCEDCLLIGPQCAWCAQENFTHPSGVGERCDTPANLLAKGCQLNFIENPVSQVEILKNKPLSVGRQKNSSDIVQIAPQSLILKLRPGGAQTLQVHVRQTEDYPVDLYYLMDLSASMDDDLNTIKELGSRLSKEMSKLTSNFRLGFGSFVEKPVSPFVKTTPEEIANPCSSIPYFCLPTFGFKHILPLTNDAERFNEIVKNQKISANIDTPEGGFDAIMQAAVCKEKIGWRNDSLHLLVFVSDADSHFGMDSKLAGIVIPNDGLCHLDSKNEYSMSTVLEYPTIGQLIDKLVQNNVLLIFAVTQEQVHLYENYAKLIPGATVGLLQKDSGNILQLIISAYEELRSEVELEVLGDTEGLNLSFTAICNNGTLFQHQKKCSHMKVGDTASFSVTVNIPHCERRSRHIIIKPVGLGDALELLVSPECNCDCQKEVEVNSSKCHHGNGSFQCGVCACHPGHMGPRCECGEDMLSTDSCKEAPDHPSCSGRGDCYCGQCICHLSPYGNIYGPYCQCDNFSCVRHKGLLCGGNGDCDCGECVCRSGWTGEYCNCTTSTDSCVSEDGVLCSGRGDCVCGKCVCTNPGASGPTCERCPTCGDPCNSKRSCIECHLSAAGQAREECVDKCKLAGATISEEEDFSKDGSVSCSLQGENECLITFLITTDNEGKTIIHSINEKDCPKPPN
# T1 sequence (P06756 31-889 limits assumed): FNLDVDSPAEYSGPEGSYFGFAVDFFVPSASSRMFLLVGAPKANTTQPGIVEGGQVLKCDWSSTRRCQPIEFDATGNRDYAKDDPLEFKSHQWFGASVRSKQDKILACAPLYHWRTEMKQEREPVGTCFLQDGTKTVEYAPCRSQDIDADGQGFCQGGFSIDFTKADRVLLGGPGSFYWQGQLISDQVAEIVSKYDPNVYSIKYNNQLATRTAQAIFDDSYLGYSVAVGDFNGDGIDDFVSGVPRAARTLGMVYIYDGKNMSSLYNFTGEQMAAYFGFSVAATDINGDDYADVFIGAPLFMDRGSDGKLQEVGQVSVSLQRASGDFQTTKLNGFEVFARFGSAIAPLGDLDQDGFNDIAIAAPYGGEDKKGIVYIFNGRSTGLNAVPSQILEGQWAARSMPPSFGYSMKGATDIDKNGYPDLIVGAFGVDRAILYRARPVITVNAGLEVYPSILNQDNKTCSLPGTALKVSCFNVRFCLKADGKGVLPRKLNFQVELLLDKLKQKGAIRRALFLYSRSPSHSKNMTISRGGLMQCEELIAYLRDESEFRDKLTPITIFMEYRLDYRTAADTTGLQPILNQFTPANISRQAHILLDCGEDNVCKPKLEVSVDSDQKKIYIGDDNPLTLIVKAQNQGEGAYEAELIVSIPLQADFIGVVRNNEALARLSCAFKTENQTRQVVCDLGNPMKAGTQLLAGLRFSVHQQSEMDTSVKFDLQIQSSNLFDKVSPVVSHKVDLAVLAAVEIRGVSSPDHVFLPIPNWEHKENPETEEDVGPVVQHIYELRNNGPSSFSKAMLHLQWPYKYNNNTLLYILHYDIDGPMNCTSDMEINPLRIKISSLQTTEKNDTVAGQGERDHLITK
# T1 sequence (P06756 891-1048 partner limits assumed): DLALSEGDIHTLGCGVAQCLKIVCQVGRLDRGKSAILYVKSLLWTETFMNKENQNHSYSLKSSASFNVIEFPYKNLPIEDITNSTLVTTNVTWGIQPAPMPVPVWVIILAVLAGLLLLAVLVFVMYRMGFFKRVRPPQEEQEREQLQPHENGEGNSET
# T1 sequence (P18084 24-799): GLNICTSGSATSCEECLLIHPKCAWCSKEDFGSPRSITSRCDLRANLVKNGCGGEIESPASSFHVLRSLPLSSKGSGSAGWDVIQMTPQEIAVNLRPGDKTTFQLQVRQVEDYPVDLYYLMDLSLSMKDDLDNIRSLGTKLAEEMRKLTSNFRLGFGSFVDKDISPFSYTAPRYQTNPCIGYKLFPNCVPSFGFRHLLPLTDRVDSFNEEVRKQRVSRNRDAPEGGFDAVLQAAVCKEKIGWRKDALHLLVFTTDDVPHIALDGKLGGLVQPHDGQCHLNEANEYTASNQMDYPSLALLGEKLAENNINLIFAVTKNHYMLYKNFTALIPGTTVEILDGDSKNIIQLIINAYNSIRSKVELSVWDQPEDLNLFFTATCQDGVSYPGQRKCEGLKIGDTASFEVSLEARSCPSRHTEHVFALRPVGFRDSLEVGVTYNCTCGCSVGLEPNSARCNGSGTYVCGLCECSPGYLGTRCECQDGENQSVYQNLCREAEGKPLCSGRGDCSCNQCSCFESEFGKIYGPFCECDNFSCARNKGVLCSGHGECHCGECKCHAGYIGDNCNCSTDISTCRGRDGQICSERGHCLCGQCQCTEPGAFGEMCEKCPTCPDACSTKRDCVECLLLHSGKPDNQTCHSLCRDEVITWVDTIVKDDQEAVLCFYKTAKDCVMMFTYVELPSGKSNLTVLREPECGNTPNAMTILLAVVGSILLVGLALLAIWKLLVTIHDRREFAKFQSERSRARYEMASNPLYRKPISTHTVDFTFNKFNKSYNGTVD
molecule,measurement,setting,value
"CNC(=C[N+](=O)[O-])NCCSCc1ccc(CN(C)C)o1 [Ranitidine, reference compound]",Mass retention,"[1]; 4 h, 50 μM",21%
same,"Permeability, Mean",[1],<−7* Log10[10^−6 cm/s]
same,"Permeability, replicate 1",[1],<−7 Log10[10^−6 cm/s]
same,"Permeability, replicate 2",[1],<−7 Log10[10^−6 cm/s]
same,"Permeability, replicate 3",[1],<−7 Log10[10^−6 cm/s]
"C[C@@H]1NC(=O)[C@H](C)N(C)C(=O)[C@H](C)NC(=O)[C@H](CC(=O)O)N(C)C(=O)CNC(=O)[C@@H](CCCNC(=N)N)NC1=O [compound 17, c(rG*DA*AA)]",Caco-2 permeability,Caco-2 cells,significant lower permeability
same,IC50,human αvβ5-integrin,> 5 µM
same,IC50,human αvβ6-Integrin,> 10 µM
same,IC50,human α5β1-integrin,> 10 µM
CC(C)C[C@@H]1NC(=O)[C@H](CC(=O)O)NC(=O)CNC(=O)[C@H](CCCNC(=N)N)NC(=O)[C@H](Cc2ccccc2)NC(=O)[C@@H]2CCCN2C(=O)[C@@H]2CCCN2C(=O)[C@H](CC(C)C)NC(=O)[C@H](C)NC1=O [OM1186] (cyclo(RGDLALPPF)),Mass retention,[1],13%
same,"Permeability, Mean",[1],<−7 Log10[10^−6 cm/s]
same,"Permeability, replicate 1",[1],<−7 Log10[10^−6 cm/s]
same,"Permeability, replicate 2",[1],<−7 Log10[10^−6 cm/s]
same,"Permeability, replicate 3",[1],<−7 Log10[10^−6 cm/s]
same,Papp A→B,[2]; Mean,< 0.3 ×10⁻⁶ cm/s
same,Papp A→B,[2]; replicate 1,< 0.6 ×10⁻⁶ cm/s
same,Papp A→B,[2]; replicate 2,< 0.3 ×10⁻⁶ cm/s
same,Papp B→A,[2]; Mean,0.2 ×10⁻⁶ cm/s
same,Papp B→A,[2]; replicate 1,0.1 ×10⁻⁶ cm/s
same,Papp B→A,[2]; replicate 2,0.2 ×10⁻⁶ cm/s
same,Papp B→A,[2]; replicate 3,0.3 ×10⁻⁶ cm/s
same,"efflux ratio at 90 min, 10 µM",in vitro [3],0.6
same,logD,[4]; pH 7.4 (mean / reported value),-0.19
"C[C@@H]1NC(=O)[C@H](CC(=O)O)NC(=O)CNC(=O)[C@@H](CCCNC(=N)N)N(C)C(=O)[C@H](Cc2ccccc2)NC(=O)[C@H](C)N(C)C1=O [compound 33, c(*rGDA*AF)]",IC50,"human αvβ6-Integrin; Table 1, read-out: αvβ6, IC50",0.025 ± 0.003 µM
"CCCCCCOC(=O)N=C(NCCC[C@@H]1NC(=O)[C@H](Cc2ccccc2)NC(=O)[C@@H]2CCCN2C(=O)[C@@H]2CCCN2C(=O)[C@H](CC(C)C)NC(=O)[C@H](C)NC(=O)[C@H](CC(C)C)NC(=O)[C@H](CC(=O)OC)NC(=O)CNC1=O)NC(=O)OCCCCCC [AR372] (cyclo(ALPPF[Arg(ω,ω'-(C6H13OCO)2)]GD(OMe)L))",PAMPA permeability,[1],>−5 to >−6
same,Mass retention,[1],80%
same,"Permeability, Mean",[1],−5.9 Log10[10^−6 cm/s]
same,"Permeability, replicate 1",[1],−6.2 Log10[10^−6 cm/s]
same,"Permeability, replicate 2",[1],−5.7 Log10[10^−6 cm/s]
same,"Permeability, replicate 3",[1],−5.7 Log10[10^−6 cm/s]
same,Papp A→B,[2]; Mean,< 0.01 ×10⁻⁶ cm/s
same,Papp A→B,[2]; replicate 1,< 0.01 ×10⁻⁶ cm/s
same,Papp A→B,[2]; replicate 2,< 0.01 ×10⁻⁶ cm/s
same,Papp A→B,[2]; replicate 3,< 0.01 ×10⁻⁶ cm/s
same,Papp B→A,[2]; Mean,0.4 ×10⁻⁶ cm/s
same,Papp B→A,[2]; replicate 1,0.5 ×10⁻⁶ cm/s
same,Papp B→A,[2]; replicate 2,0.5 ×10⁻⁶ cm/s
same,Papp B→A,[2]; replicate 3,0.3 ×10⁻⁶ cm/s
same,logD,[4]; pH 7.4 (mean / reported value),> 4.5
same,logD,[4]; [8],4.85
same,logD,[4]; pH 7.4 (single replicate),4.8
CC(C)NCC(O)COc1cccc2ccccc12 (stereo not drawn) [Propranolol],"efflux ratio at 90 min, 10 µM",in vitro [3],0.8
same,"Papp A→B at 90 min, 10 μM",in vitro [3]; Mean,18.1 ×10⁻⁶ cm/s
same,"Papp A→B at 90 min, 10 μM",in vitro [3]; replicate 1,14.9 ×10⁻⁶ cm/s
same,"Papp A→B at 90 min, 10 μM",in vitro [3]; replicate 2,24.1 ×10⁻⁶ cm/s
same,"Papp A→B at 90 min, 10 μM",in vitro [3]; replicate 3,15.3 ×10⁻⁶ cm/s
same,"Papp B→A at 90 min, 10 μM",in vitro [3]; Mean,15.3 ×10⁻⁶ cm/s
same,"Papp B→A at 90 min, 10 μM",in vitro [3]; replicate 2,15.3 ×10⁻⁶ cm/s
same,"Papp B→A at 90 min, 10 μM",in vitro [3]; replicate 3,17 ×10⁻⁶ cm/s
COCCc1ccc(OCC(O)CNC(C)C)cc1 (stereo not drawn) [metoprolol],Papp A→B at 150 min,in vitro [5],1.89 ± 0.11 ×10⁻⁶ cm/s
PTR-3046: backbone cyclic somatostatin analog (SEQ ID NO: 28) ([N(2-aminoethyl)Phe]Y[dW]KV[Phe(Nα-(CH2)3CO)]T-NH2; bridge 1-6; also: backbone cyclisation between building units),somatostatin receptor selectivity,somatostatin receptors,selective toward the SSTR5
same,inhibition of amylase and lipase release,[6],inhibits bombesin- and caerulein-induced amylase and lipase release from the pancreas
"CCCCCCOC(=O)N=C(NCCC[C@@H]1NC(=O)[C@H](C(C)C)N(C)C(=O)[C@@H](Cc2ccccc2)NC(=O)[C@H](CC(=O)OC)NC(=O)CNC1=O)NC(=O)OCCCCCC [Cil.-P, c(f*VR(Hoc)2 GD)]",PAMPA permeability,[1],does not enhance the permeability
same,Mass retention,[1],36%
same,"Permeability, Mean",[1],−6.5 Log10[10^−6 cm/s]
same,"Permeability, replicate 1",[1],−8.1 Log10[10^−6 cm/s]
same,"Permeability, replicate 2",[1],−6.6 Log10[10^−6 cm/s]
same,"Permeability, replicate 3",[1],−6.5 Log10[10^−6 cm/s]
CCCCCCOC(=O)N=C(N)NCCC[C@@H]1NC(=O)[C@@H](C(C)C)N(C)C(=O)[C@H](C)N(C)C(=O)[C@H](C)NC(=O)[C@H](CC(=O)OC)NC(=O)CNC1=O [#29P-Hoc],PAMPA permeability,[1],low permeability
same,Mass retention,[1],10%
same,"Permeability, Mean",[1],<−7 Log10[10^−6 cm/s]
same,"Permeability, replicate 1",[1],<−7 Log10[10^−6 cm/s]
same,"Permeability, replicate 2",[1],<−7 Log10[10^−6 cm/s]
same,"Permeability, replicate 3",[1],<−7 Log10[10^−6 cm/s]
"C=C[C@H]1C[N@@]2CC[C@H]1C[C@@H]2[C@@H](O)c1ccnc2ccc(OC)cc12 [Quinidine, reference compound]",Mass retention,"[1]; 4 h, 50 μM",56%
same,"Permeability, Mean",[1],−4.5* Log10[10^−6 cm/s]
same,"Permeability, replicate 1",[1],−4.6 Log10[10^−6 cm/s]
same,"Permeability, replicate 2",[1],−4.5 Log10[10^−6 cm/s]
same,"Permeability, replicate 3",[1],−4.5 Log10[10^−6 cm/s]
"CCCCCCOC(=O)N=C(NCCC[C@@H]1NC(=O)[C@@H](C(C)C)N(C)C(=O)[C@H](C)N(C)C(=O)[C@H](C)NC(=O)[C@H](CC(=O)OC)NC(=O)CNC1=O)NC(=O)OCCCCCC [peptide 29P, c(*vR(Hoc)2GD(OMe)A*A)]",efflux ratio,[7]; Caco-2,13
same,Papp A→B,"[7]; Caco-2, Caco-2 Papp A-to-B, A-to-B, text values (FIGS. 4, 5, 7, 17-20), unit inferred",0.8 ×10⁻⁶ cm/s
same,Papp B→A,"[7]; Caco-2, Caco-2 Papp B-to-A, B-to-A, text values (FIGS. 5, 18, 20), unit inferred",10.6 ×10⁻⁶ cm/s
same,Papp A→B,"[7]; Caco-2, Papp AB, Table 3, n = 3",0.82 ± 0.13 ×10⁻⁶ cm/s
same,Papp B→A,"[7]; Caco-2, Papp BA, Table 3, n = 3",10.7 ± 2.14 ×10⁻⁶ cm/s
CC(C)C[C@@H]1NC(=O)CNC(=O)[C@@H]2CCCN2C(=O)[C@@H]2CCCN2C(=O)[C@H](CC(C)C)NC(=O)[C@H](CC(=O)O)NC(=O)CNC(=O)[C@H](CCCNC(=N)N)NC1=O [FRX068] (cyclo(RGDLPPGL)),Mass retention,[1],2%
same,"Permeability, Mean",[1],<−7 Log10[10^−6 cm/s]
same,"Permeability, replicate 1",[1],<−7 Log10[10^−6 cm/s]
same,"Permeability, replicate 2",[1],<−7 Log10[10^−6 cm/s]
same,"Permeability, replicate 3",[1],<−7 Log10[10^−6 cm/s]
same,Papp A→B,[2]; Mean,0.3 ×10⁻⁶ cm/s
same,Papp A→B,[2]; replicate 1,0.3 ×10⁻⁶ cm/s
same,Papp A→B,[2]; replicate 2,0.2 ×10⁻⁶ cm/s
same,Papp A→B,[2]; replicate 3,0.2 ×10⁻⁶ cm/s
same,Papp B→A,[2]; Mean,0.3 ×10⁻⁶ cm/s
same,Papp B→A,[2]; replicate 1,0.3 ×10⁻⁶ cm/s
same,Papp B→A,[2]; replicate 2,0.3 ×10⁻⁶ cm/s
same,Papp B→A,[2]; replicate 3,0.3 ×10⁻⁶ cm/s
same,"efflux ratio at 90 min, 10 µM",in vitro [3],1.1
same,logD,[4]; pH 7.4 (mean / reported value),< -1
same,logD,[4]; [8],-1.49
"C[C@@H]1NC(=O)[C@H](CC(=O)O)NC(=O)CNC(=O)[C@@H](CCCNC(=N)N)NC(=O)[C@H](C)N(C)C(=O)[C@H](C)N(C)C1=O [compound 23, c(rGDA*A*A)]",Papp AB,"Caco-2 cells; Table 3, n = 3",0.61 ± 0.09 cm/s × 10^6
same,Papp BA,"Caco-2 cells; Table 3, n = 3",1.34 ± 0.03 cm/s × 10^6
same,Caco-2 permeability,Caco-2 cells,significant lower permeability
